Assays:
Assay in all cases: Kinase inhibitor library screening, PrestoBlue cell viability, 1 or 10 μM, 72 h
A375 cells (parental) = conditions: A375 Parental; for cell viability, A375 Parental, 10μΜ / cell viability (kinase inhibitor library screening): 10μΜ
[1] = test system: IGR37-XP cells (Vemurafenib-resistant); conditions: IGR37 XP
[2] = test system: IGR37-GP cells (Dabrafenib-resistant); conditions: IGR37 GP
[3] = test system: A375-XP cells (Vemurafenib-resistant); conditions: A375 XP
IGR37 cells (parental) = conditions: IGR37 Parental
501Mel cells (parental) = conditions: 501Mel Parental
In short: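 Kinase inhibitors added at two fixed concentrations; 72 h exposure; PrestoBlue readout; % viability vs untreated; n ≥ 2 per line.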

[4] = test system: A375-GP cells (Dabrafenib-resistant); conditions: A375 GP
[5] = test system: 501Mel-GP cells (Dabrafenib-resistant); conditions: 501Mel GP
[6] = test system: 501Mel-XP cells (Vemurafenib-resistant); conditions: 501Mel XP

Compound	cell viability, A375 Parental, 1μΜ (A375 cells (parental); 72 h, in %)	cell viability, A375 Parental, 10μΜ (A375 cells (parental); 72 h, in %)	cell viability, IGR37 XP, 10μΜ ([1]; 10μΜ, 72 h) [%]	cell viability, IGR37 XP, 1μΜ ([1]; 1μΜ, 72 h, in %)	cell viability, IGR37 GP, 10μΜ ([2]; 10μΜ, 72 h) [%]	cell viability, A375 XP, 1μΜ ([3]; 1μΜ, 72 h, in %)	cell viability, A375 XP, 10μΜ ([3]; 10μΜ, 72 h, in %)	cell viability, IGR37 Parental, 10μΜ (IGR37 cells (parental); 10μΜ, 72 h, in %)	cell viability, 501Mel Parental, 1μΜ (501Mel cells (parental); 1μΜ, 72 h, in %)	cell viability, 501Mel Parental, 10μΜ (501Mel cells (parental); 10μΜ, 72 h, in %)	cell viability, A375 GP, 10μΜ ([4]; 10μΜ, 72 h, in %)	cell viability, 501Mel GP, 10μΜ ([5]; 10μΜ, 72 h, in %)	cell viability, 501Mel XP, 1μΜ ([6]; 1μΜ, 72 h, in %)	cell viability, 501Mel XP, 10μΜ ([6]; 10μΜ, 72 h, in %)	cell viability (kinase inhibitor library screening) (A375 cells (parental); 72 h) [%]	cell viability (kinase inhibitor library screening) ([1]; 10μΜ, 72 h) [%]	cell viability (kinase inhibitor library screening) ([3]; 10μΜ, 72 h) [%]	cell viability (kinase inhibitor library screening) (IGR37 cells (parental); 10μΜ, 72 h) [%]	cell viability (kinase inhibitor library screening) (501Mel cells (parental); 10μΜ, 72 h) [%]	cell viability (kinase inhibitor library screening) ([4]; 1μΜ, 72 h) [%]	further results
Nc1cccc(-c2cc3c(Oc4cccc(O)c4)ncnc3[nH]2)c1 [TWS119]	93.6	29.8	33.3	80.5	61.4	96.8	67.4	65.2	90.4	35.3	41.9	40.8	95.3	26.6	–	–	–	–	–	–	cell viability, IGR37 GP, 1μΜ ([2]; 1μΜ, 72 h, in %): 96.5; cell viability, IGR37 Parental, 1μΜ (IGR37 cells (parental); 1μΜ, 72 h, in %): 100.4; cell viability, A375 GP, 1μΜ ([4]; 1μΜ, 72 h, in %): 97.7
Cc1ccc(NC(=O)c2ccc(CN3CCN(C)CC3)cc2)cc1Nc1nc(-c2cccnc2)cs1 [Masitinib (AB1010)]	–	–	–	–	–	–	–	–	–	–	–	–	–	–	87.9	49.1	94.5	92.0	88.8	98.6	cell viability (kinase inhibitor library screening) ([1]; 1μΜ, 72 h): 103.2%; cell viability (kinase inhibitor library screening) ([2]; 10μΜ, 72 h): 77.4%; cell viability (kinase inhibitor library screening) ([3]; 1μΜ, 72 h): 105.3%; cell viability (kinase inhibitor library screening) (IGR37 cells (parental); 1μΜ, 72 h): 98.6%; cell viability (kinase inhibitor library screening) ([4]; 10μΜ, 72 h): 85.2%; cell viability (kinase inhibitor library screening) ([5]; 1μΜ, 72 h): 103.1%; cell viability (kinase inhibitor library screening) ([5]; 10μΜ, 72 h): 85.2%; cell viability (kinase inhibitor library screening) ([6]; 1μΜ, 72 h): 94.5%; cell viability (kinase inhibitor library screening) ([6]; 10μΜ, 72 h): 20.4%
C[C@@H]1CN(CC(=O)Nc2ccc3c(c2)Cc2cccc(-c4cc(=O)cc(N5CCOCC5)o4)c2S3)C[C@H](C)O1 [KU-60019]	–	–	–	–	–	–	–	–	–	–	–	–	–	–	78.4	34.1	74.4	97.6	71.5	100.5	cell viability (kinase inhibitor library screening) ([2]; 1μΜ, 72 h): 92.9%; cell viability (kinase inhibitor library screening) (501Mel cells (parental); 1μΜ, 72 h): 90.0%; cell viability (kinase inhibitor library screening) ([4]; 10μΜ, 72 h): 68.6%; cell viability (kinase inhibitor library screening) ([5]; 1μΜ, 72 h): 103.1%; cell viability (kinase inhibitor library screening) ([5]; 10μΜ, 72 h): 54.1%; cell viability (kinase inhibitor library screening) ([6]; 1μΜ, 72 h): 91.4%; cell viability (kinase inhibitor library screening) ([6]; 10μΜ, 72 h): 36.5%
CC(C)(C)c1cc(/C=C(\C#N)C(N)=S)cc(C(C)(C)C)c1O [Tyrphostin AG 879 (AG 879)]	103.1	21.0	21.5	90.9	60.1	105.8	24.1	83.4	115.0	44.8	19.7	23.6	98.6	18.3	–	–	–	–	–	–	cell viability, 501Mel GP, 1μΜ ([5]; 1μΜ, 72 h, in %): 110.4
CNC(=O)c1cc(Oc2ccc(NC(=O)Nc3ccc(Cl)c(C(F)(F)F)c3)cc2)ccn1 [Sorafenib (Nexavar)]	–	–	–	–	–	–	–	–	–	–	–	–	–	–	–	–	–	–	–	–	cell viability (kinase inhibitor library screening) (A375 cells (parental); in %): 44.5; cell viability (kinase inhibitor library screening) ([1]; 1μΜ, in %): 106.1; cell viability (kinase inhibitor library screening) ([1]; 10μΜ, in %): 16.7; cell viability (kinase inhibitor library screening) ([2]; 1μΜ, in %): 102.7; cell viability (kinase inhibitor library screening) ([2]; 10μΜ, in %): 41.3; cell viability (kinase inhibitor library screening) ([3]; 1μΜ, in %): 95.0; cell viability (kinase inhibitor library screening) ([3]; 10μΜ, in %): 16.4; cell viability (kinase inhibitor library screening) (IGR37 cells (parental); 1μΜ, in %): 96.8; cell viability (kinase inhibitor library screening) (IGR37 cells (parental); 10μΜ, in %): 60.6; cell viability (kinase inhibitor library screening) (501Mel cells (parental); 1μΜ, in %): 97.8; cell viability (kinase inhibitor library screening) (501Mel cells (parental); 10μΜ, in %): 53.0; cell viability (kinase inhibitor library screening) ([4]; 1μΜ, in %): 80.9; cell viability (kinase inhibitor library screening) ([4]; 10μΜ, in %): 22.0; cell viability (kinase inhibitor library screening) ([5]; 1μΜ, in %): 104.7; cell viability (kinase inhibitor library screening) ([6]; 1μΜ, in %): 96.9; cell viability (kinase inhibitor library screening) ([6]; 10μΜ, in %): 23.2

Source: PMC6364417, “Kinase inhibitor library screening identifies synergistic drug combinations effective in sensitive and resistant melanoma cells” (Journal of Experimental & Clinical Cancer Research : CR, 2019)
